Where two headings read alike, the source gives them in different places.

Format in all cases: biochemical
In experiment [1] the target is T1, IKKβ (Homo sapiens, UniProt O14920).
T1 sequence (O14920 1-756): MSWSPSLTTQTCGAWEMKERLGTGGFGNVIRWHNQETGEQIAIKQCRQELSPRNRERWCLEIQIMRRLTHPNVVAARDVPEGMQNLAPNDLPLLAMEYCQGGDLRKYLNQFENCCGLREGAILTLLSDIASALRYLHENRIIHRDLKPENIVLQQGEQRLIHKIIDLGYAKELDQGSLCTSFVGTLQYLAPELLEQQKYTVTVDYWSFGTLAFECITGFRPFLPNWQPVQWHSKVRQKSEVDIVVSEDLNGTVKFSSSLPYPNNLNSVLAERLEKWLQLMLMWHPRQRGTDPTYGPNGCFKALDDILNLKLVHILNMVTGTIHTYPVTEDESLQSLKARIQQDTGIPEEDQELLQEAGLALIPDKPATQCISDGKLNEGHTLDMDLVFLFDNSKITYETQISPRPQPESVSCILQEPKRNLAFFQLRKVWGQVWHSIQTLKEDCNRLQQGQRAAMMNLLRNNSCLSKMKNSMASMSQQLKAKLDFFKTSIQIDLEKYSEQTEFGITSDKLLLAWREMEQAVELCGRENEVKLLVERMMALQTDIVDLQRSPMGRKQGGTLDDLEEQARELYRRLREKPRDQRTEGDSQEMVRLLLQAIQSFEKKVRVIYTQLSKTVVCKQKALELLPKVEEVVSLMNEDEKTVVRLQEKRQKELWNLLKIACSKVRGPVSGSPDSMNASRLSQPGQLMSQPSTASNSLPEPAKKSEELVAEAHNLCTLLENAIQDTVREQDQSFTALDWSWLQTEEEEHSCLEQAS
The experiment in a line: Kinase screen: IKKb assay. As for the experimental part:
(§1) Generally, the same procedure was used for all assays. Since the total assay volume was 25.5 microliters, 0.5 microliters of inhibitors at 51× assay concentration were added to the plates before any other addition.
(§2) The basic procedure was to add 0.5 microliters inhibitor/control in DMSO to plate. Fifteen microliters of enzyme/substrate/buffer mix were added and incubated for 5 min. Ten microliters MgATP at the relevant concentration were added and incubated for 30 min. The assay was stopped by adding 5 microliters of 3% orthophosphoric acid. The assay was transferred to a p81 filter plate and read in a scintillation counter of 30 sec/well. Note that this assay procedure was not followed for MKK1, which instead involved a two-step assay, and PKC alpha, which required the addition of lipid vesicles.
IKKb assay: 5-20 mU of IKKb (diluted in 50 mM Tris (pH 7.5), 0.1 mM EGTA, 1 mg/ml BSA, 0.1%, b-Mercaptoethanol) was assayed against substrate peptide ([…]) (SEQ ID NO: 20) in a final volume of 25.5 μl containing 50 mM Tris (pH 7.5), 0.1 mM EGTA, 0.1%, b-Mercaptoethanol, 300 μM substrate peptide, 10 mM magnesium acetate and 0.005 mM [33P-g-ATP] (500-1000 cpm/pmole) and incubated for 30 mins at room temperature. Assays were stopped by addition of 5 µl of 0.5M (3%) orthophosphoric acid. Assays were harvested onto P81 Unifilter plates using a wash buffer of 50 mM orthophosphoric acid.

The subject of experiment [2] is VEG-FR. The experiment in a line: Kinase screen: VEG-FR assay. The note with it: 10 micromolar compound. The method, then:
as §1, §2
VEG-FR assay: VEG-FR (5-20 mU diluted in 50 mM Tris pH 7.5, 0.1 mM EGTA, 1 mg/ml BSA) was assayed against a substrate peptide ([…]) (SEQ ID NO: 35) in a final volume of 25.5 μl containing 50 mM Tris pH 7.5, 300 μM substrate peptide, 10 mM magnesium acetate and 0.02 mM [33P-g-ATP] (50-1000 cpm/pmole) and incubated for 30 min at room temperature. Assays were stopped by addition of 5 μl of 0.5 M (3%) orthophosphoric acid and then harvested onto P81 Unifilter plates with a wash buffer of 50 mM orthophosphoric acid.

Experiment [3] deals with JNK1 (Homo sapiens, UniProt P45983). The experiment in a line: Kinase screen: JNK1a1/SAPK1c assay. The method, then:
as §1, §2
JNK1a1/SAPK1c assay: JNK1a1/SAPK1c (5-20 mU diluted in 50 mM Tris pH 7.5, 0.1 mM EGTA, 1 mg/ml BSA, 0.1% b-mercaptoethanol) was assayed against ATF2 (activating transcription factor in a final volume of 25.5 μl in 50 mM Tris pH 7.5, 0.1 mM EGTA, 0.1% b-Mercaptoethanol, ATF2 (3 μM), 10 mM magnesium acetate and 0.02 mM [33P-g-ATP] (500-1000 cpm/pmole) and incubated for 30 min at room temperature. Assays were stopped by addition of 5 μl of 0.5 M (3%) orthophosphoric acid and then harvested onto P81 Unifilter plates with a wash buffer of 50 mM orthophosphoric acid.

The target in experiment [4] is PKBα (Homo sapiens, UniProt P31749, S473D). The experiment in a line: Kinase screen: APH-PKBa-S473D assay. As for the experimental part:
as §1, §2
APH-PKBa-S473D assay: APH-PKBa-S473D (5-20 mU diluted in 50 mM Tris pH 7.5, 0.1 mM EGTA, 0.1% b-mercaptoethanol, 1 mg/ml BSA) was assayed against a modified Crosstide peptide […] (SEQ ID NO: 4) in a final volume of 25.5 μl containing 50 mM Tris pH 7.5, 0.05% b-mercaptoethanol, 30 μM substrate peptide, 10 mM magnesium acetate and 0.005 mM [33P-g-ATP] (50-1000 cpm/pmole) and incubated for 30 min at room temperature. Assays were stopped by addition of 5 μl of 0.5 M (3%) orthophosphoric acid and then harvested onto P81 Unifilter plates with a wash buffer of 50 mM orthophosphoric acid.

Experiment [5] deals with PLK1 (Okadaic Acid) (Homo sapiens, UniProt P53350). The experiment in a line: Kinase screen: PLK1 (Okadaic Acid) assay. The method, then: as §1, §2
Chain of PLK1 (Okadaic Acid) (P53350 whole entry, species assumed): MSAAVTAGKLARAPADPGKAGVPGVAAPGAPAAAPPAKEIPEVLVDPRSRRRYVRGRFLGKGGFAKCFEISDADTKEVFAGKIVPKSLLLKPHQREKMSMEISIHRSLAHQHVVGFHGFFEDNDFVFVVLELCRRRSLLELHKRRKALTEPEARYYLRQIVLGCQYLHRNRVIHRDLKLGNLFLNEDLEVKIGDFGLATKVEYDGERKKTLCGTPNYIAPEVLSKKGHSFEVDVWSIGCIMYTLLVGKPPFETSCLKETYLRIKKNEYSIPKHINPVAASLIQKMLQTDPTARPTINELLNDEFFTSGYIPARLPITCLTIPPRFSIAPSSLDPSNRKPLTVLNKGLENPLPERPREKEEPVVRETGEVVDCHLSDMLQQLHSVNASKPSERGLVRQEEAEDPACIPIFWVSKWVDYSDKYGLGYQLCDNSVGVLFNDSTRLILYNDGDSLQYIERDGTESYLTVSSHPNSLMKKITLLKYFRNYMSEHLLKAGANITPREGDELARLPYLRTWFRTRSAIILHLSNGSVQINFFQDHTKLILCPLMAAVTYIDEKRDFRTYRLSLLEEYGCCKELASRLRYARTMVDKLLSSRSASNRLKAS
(50-1000 cpm/pmole) and incubated for 30 min at room temperature. Assays were stopped by addition of 5 μl of 0.5 M (3%) orthophosphoric acid and then harvested onto P81 Unifilter plates with a wash buffer of 50 mM orthophosphoric acid.

The mark [6] stands for this setting: 10 micromolar compound, read-out: mean activity remaining (as a percentage of the original activity), IKKb.
Setting [7] is: 10 micromolar compound, read-out: mean activity remaining (as a percentage of the original activity), JNK1.
Setting [8] is: 0.5 h, 10 micromolar compound, read-out: mean activity remaining (as a percentage of the original activity), PKBa.
[9] abbreviates: 10 micromolar compound, read-out: mean activity remaining (as a percentage of the original activity), PLK 1 (Okadaic Acid).

Chain of JNK1 (P45983 1-384 isoform P45983-2, species assumed): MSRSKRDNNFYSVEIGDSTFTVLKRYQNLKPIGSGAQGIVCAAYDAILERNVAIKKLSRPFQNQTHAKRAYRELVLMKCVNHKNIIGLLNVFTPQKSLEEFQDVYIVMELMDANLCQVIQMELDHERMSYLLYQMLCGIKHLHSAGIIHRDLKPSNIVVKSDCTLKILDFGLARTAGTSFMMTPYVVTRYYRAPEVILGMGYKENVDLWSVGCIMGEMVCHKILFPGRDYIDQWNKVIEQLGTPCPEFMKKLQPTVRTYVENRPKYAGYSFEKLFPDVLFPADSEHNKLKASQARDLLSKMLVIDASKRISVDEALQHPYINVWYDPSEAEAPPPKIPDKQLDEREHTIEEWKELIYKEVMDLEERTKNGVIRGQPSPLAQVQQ
Chain of PKBα (P31749 118-480 S473D limits assumed, species assumed): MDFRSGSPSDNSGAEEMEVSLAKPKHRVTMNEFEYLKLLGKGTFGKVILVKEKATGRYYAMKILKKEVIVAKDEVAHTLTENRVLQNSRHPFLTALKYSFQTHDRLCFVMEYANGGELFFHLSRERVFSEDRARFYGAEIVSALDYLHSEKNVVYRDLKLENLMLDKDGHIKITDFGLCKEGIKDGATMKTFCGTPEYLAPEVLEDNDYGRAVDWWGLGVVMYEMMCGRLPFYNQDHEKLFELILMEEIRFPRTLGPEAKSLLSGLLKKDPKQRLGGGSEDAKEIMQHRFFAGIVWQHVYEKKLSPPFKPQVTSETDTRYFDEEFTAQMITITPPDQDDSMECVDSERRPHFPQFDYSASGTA

For the compound `CC[C@H](CO)Nc1cc(NCc2ccccc2)n2ncc(C(C)C)c2n1` [ICEC0067], the remaining activity at 10 µM in experiment [1] (setting [6]) stood at 84%; in experiment [3] (setting [7]), 98%; in experiment [4] (setting [8]), 109%; in experiment [5] (setting [9]), 93%. Besides, in experiment [2], the “mean activity remaining (as a percentage of the original activity), VEG-FR” value is 99%.

For `C=C[C@H](CO)Nc1cc(NCc2ccccc2)n2ncc(C(C)C)c2n1` [ICEC0065], the remaining activity at 10 µM worked out at 81% in experiment [1] (setting [6]), 95% in experiment [3] (setting [7]), 116% in experiment [4] (setting [8]) and 104% in experiment [5] (setting [9]). Further, the “mean activity remaining (as a percentage of the original activity), VEG-FR” value in experiment [2] came out at 101%.

For `CC(C)c1cnn2c(NCc3ccccc3)cc(N[C@@H](CO)[C@H](O)CO)nc12` [ICEC0318, (3S)-3-(7-(Benzylamino)-3-isopropylpyrazolo[1,5-a]pyrimidin-5-ylamino)butane-1,2,4-triol], the remaining activity at 10 µM is 80% in experiment [1] (setting [6]), 93% in experiment [3] (setting [7]), 103% in experiment [4] (setting [8]) and 97% in experiment [5] (setting [9]). Besides, in experiment [2], the “mean activity remaining (as a percentage of the original activity), VEG-FR” value worked out at 92%.

For the compound `CC(C)c1cnn2c(NCc3ccccc3F)cc(NCCCCCN)nc12` [ICEC-0232], the “mean activity remaining (as a percentage of the original activity), IKKb” value in experiment [1] (10 micromolar compound) is 84%. Moreover, the “mean activity remaining (as a percentage of the original activity), VEG-FR” value in experiment [2] came out at 105%. Also, the “mean activity remaining (as a percentage of the original activity), JNK1” value in experiment [3] (10 micromolar compound) worked out at 87%. Also, the “mean activity remaining (as a percentage of the original activity), PKBa” value in experiment [4] (10 micromolar compound) is recorded as 75%. Further, the “mean activity remaining (as a percentage of the original activity), PLK 1 (Okadaic Acid)” value in experiment [5] (10 micromolar compound) was 125%.

Consider `CC(C)c1cnn2c(NCc3ccccc3)cc(NCCCCCCCN)nc12` [BS-181], for which the remaining activity at 10 µM in experiment [1] (IKKβ, 10 μM, read-out: Mean Remaining Enzyme Activity (%)) was 96%; in experiment [3] (JNK1, 10 μM, read-out: Mean Remaining Enzyme Activity (%)) it was 100%; in experiment [4] (PKBα, 10 μM, read-out: Mean Remaining Enzyme Activity (%)) it was 82%; in experiment [5] (PLK1 (Okadaic Acid), 10 μM, read-out: Mean Remaining Enzyme Activity (%)), 108%.

By remaining activity is commonly meant the signal under treatment as a percentage of the control signal.

Values taken from US8067424B2, “Selective inhibitors for cyclin-dependent kinases” (Emory University, priority 2007, dated 2011).
